Reference: patent US6828315B1, “1-Amino triazoloc4,3-a! quinazoline-5-ones and/or -5-thiones inhibiting phosphodiesterase IV” (Warner-Lambert LLC, priority 1999, dated 2004)

Row | SMILES | melting point
1 | COc1ccc(Cn2nc(N3CCCC3)n3c4ccc(Br)cc4c(=O)nc23)cc1 [Compound 146, 7-Bromo-3-(4-methoxy-benzyl)-1-pyrrolidin-1-yl-3H-[1,2,4]triazolo[4,3-a]quinazolin-5-one] | 164 °C
2 | O=c1c2cc(Br)ccc2n2c(N3CCCC3)nnc2n1CCO [Compound 68, 7-Bromo-4-(2-hydroxy-ethyl)-1-pyrrolidin-1-yl-4H-[1,2,4]triazolo[4,3-a]quinazolin-5-one] | 240 °C
3 | COC(=O)C(c1ccccc1)n1nc(N2CCCC2)n2c3ccc(Br)cc3c(=O)nc12 (centres unmarked) [Compound 154, (7-Bromo-5oxo-1-pyrrolidin-1-yl-5H-[1,2,4]triazolo[4,3-a]quinazolin-3-yl)-phenyl-acetic acid methyl ester] | 187 °C
4 | CN1CCN(c2nnc3n(C)c(=O)c4cc(Cl)ccc4n23)CC1 [Compound 169, 7-Chloro-4-methyl-1-(4-methyl-piperazin-1-yl)-4H-[1,2,4]triazolo[4,3-a]quinazolin-5-one] | 180 to 182 °C
5 | COc1ccc(Cn2nc(N3CCCCCC3)n3c4ccc(Cl)cc4c(=O)nc23)cc1OC [Compound 124, 1-(azepan-1-yl)-7-chloro-3-(3,4-dimethoxybenzyl)-3H-[1,2,4]triazolo[4,3-a]quinazolin-5-one] | 153 °C
6 | Cc1ccc2c(c1)c(=O)n(CC=Cc1ccncc1)c1nnc(N(C)C)n21 [Compound 105, 1-Dimethylamino-7-methyl-4-(3-pyridin-4yl-allyl)-4H-[1,2,4]triazolo[4,3-a]quinazolin-5-one] | 119 °C
7 | O=c1nc2n(CC=Cc3ccccc3)nc(N3CCCC3)n2c2ccc(O)cc12 [Compound 161, 7-hydroxy-3-(3-phenylallyl)-1-(pyrrolidin-1-yl)-3H-[1,2,4]triazolo[4,3-a]quinazolin-5-one] | 255 °C
8 | O=c1c2cc(Cl)ccc2n2c(N3CCCCCC3)nnc2n1Cc1ccccc1 [Compound 172, 1-(azepan-1-yl)-4-benzyl-7-chloro-4H-[1,2,4]triazolo[4,3-a]-quinazolin-5-one] | 162 °C
9 | Cc1ccc2c(c1)c(=O)nc1n(CC=Cc3ccccc3)nc(N3CCCC3)n21 [Compound 158, 7-methyl-3-(3-phenylallyl)-1-(pyrrolidin-1-yl)-3H-[1,2,4]triazolo[4,3-a]quinazolin-5-one] | 225 °C
10 | CCCCn1c(=O)c2cc(Br)ccc2n2c(N3CCCC3)nnc12 [Compound 66, 7-Bromo-4-butyl-1-pyrrolidin-1-yl-4H-[1,2,4]triazolo[4,3-a]quinazolin-5-one] | 135 °C
11 | O=c1c2ccccc2n2c(N3CCCCCC3)nnc2n1Cc1ccccc1 [Compound 201, 1-(azepan-1-yl)-4-benzyl-4H-[1,2,4]triazolo[4,3-a]quinazolin-5-one] | 157 °C
12 | O=c1c2cc(Br)ccc2n2c(N3CCCC3)nnc2n1CC1CCCC1 [Compound 65, 7-Bromo-4-cyclopentylmethyl-1-pyrrolidin-1-yl-4H-[1,2,4]triazolo[4,3-a]quinazolin-5-one] | 155 °C
13 | O=c1nc2n(Cc3ccc(F)cc3)nc(N3CCCC3)n2c2ccc(Br)cc12 [Compound 143, 7-bromo-3-(4-fluorobenzyl)-1-(pyrrolidin-1-yl)-3H-[1,2,4]triazolo[4,3-a]quinazolin-5-one] | 233 °C
14 | COC(=O)c1cc(C(=O)Cn2c(=O)c3cc(Cl)ccc3n3c(N4CCCCCC4)nnc23)ccc1OC [Compound 30, 5-[(1-(azepan-1-yl)-7-chloro-5-oxo-5H-[1,2,4]triazolo[4,3-a]-quinazolin-4-yl)acetyl]-2-methoxybenzoic acid methyl ester] | 140 °C
15 | CN1CCN(c2nnc3n(Cc4ccccc4)c(=O)c4cc(Br)ccc4n23)CC1 [Compound 182, 4-Benzyl-7-bromo-1-(4-methyl-piperazin-1-yl)-4H-[1,2,4]triazolo[4,3-a]quinazolin-5-one] | 230 °C
16 | Cc1ccc2c(c1)c(=O)n(Cc1ccccc1)c1nnc(N3CCSCC3)n21 [Compound 193, 4-Benzyl-7-methyl-1-thiomorpholin-4-yl-4H-[1,2,4]triazolo[4,3-a]quinazolin-5-one] | 265 °C
17 | O=c1nc2n(Cc3ccc4c(c3)OCO4)nc(N3CCCC3)n2c2ccc(Br)cc12 (hydrate or solvate) [Compound 149, 3-(benzo[1,3]dioxol-5-ylmethyl)-7-bromo-1-(pyrrolidin-1-yl)-3H-[1,2,4]triazolo[4,3-a]quinazolin-5-one] | 234 °C

Results, then the molecule that gave them:

Row | melting point | SMILES
18 | 139 °C | Cc1ccc2c(c1)c(=O)n(Cc1cccnc1)c1nnc(N3CCCC3)n21 [Compound 97, 7-Methyl-4-pyridin-3-ylmethyl-1-pyrrolidin-1-yl-4H-[1,2,4)triazolo[4,3-a]quinazolin-5-one]
19 | 163 °C | O=c1c2cc(Cl)ccc2n2c(N3CCCC3)nnc2n1Cc1ccccc1 [Compound 173, 4-benzyl-7chloro-1-(pyrrolidin-1-yl)-4H-[1,2,4]triazolo[4,3-a]-quinazolin-5-one]
20 | 147 to 149 °C | CN(C)c1nnc2n(Cc3ccc(C#N)cc3)c(=O)c3cc(C#N)ccc3n12 [Compound 107, 4-(4-Cyano-benzyl)-1-dimethylamino-5-oxo-4,5-dihydro-[1,2,4]triazolo[4,3-a]quinazoline-7-carbonitrile]
21 | 164 to 165 °C | COc1ccc(Cn2nc(N3CCCCCC3)n3c4ccc(Cl)cc4c(=O)nc23)cc1 [Compound 122, 1-(azepan-1-yl)-7-chloro-3-(4-methoxybenzyl)-3H-[1,2,4]triazolo[4,3-a]quinazolin-5-one]
22 | 295 °C (dec.) | O=c1c2cc(O)ccc2n2c(N3CCCC3)nnc2n1C/C=C/c1ccccc1 [Compound 108, 7-Hydroxy-4-((E)-3-phenyl-allyl)-1-pyrrolidin-1-yl-4H-[1,2,4]triazolo[4,3-a]quinazolin-5-one]
23 | 174 °C | Cn1c(=O)c2cc(Br)ccc2n2c(N3CCCCCC3)nnc12 [Compound 177, 1-(azepan-1-yl)-7-bromo-4-methyl-4H-[1,2,4]triazolo[4,3-a]-quinazolin-5-one]
24 | 268 °C | CN(C)c1nnc2n(Cc3ccc(CC(N)=O)cc3)c(=O)c3cc(Br)ccc3n12 [Compound 241, 2-[4-(7-Bromo-1-dimethylamino-5-oxo-5H-[1,2,4]triazolo[4,3-a]quinazolin-4-ylmethyl)-phenyl]-acetamide]
25 | 138 °C | COc1cccc(Cn2c(=O)c3cc(Cl)ccc3n3c(N4CCCCCC4)nnc23)c1 [Compound 17, 1-(azepan-1-yl)-7-chloro-4-(3-methoxybenzyl)-4H-[1,2,4]triazolo[4,3-a]quinazolin-5-one]
26 | 112 °C | CCCCN(CCCC)c1nnc2n(C)c(=O)c3cc(Cl)ccc3n12 [Compound 167, 7-chloro-1-dibutylamino-4-methyl-4H-[1,2,4]triazolo[4,3-a]-quinazolin-5-one]
27 | 123 to 125 °C | Cn1c(=O)c2cc(Cl)ccc2n2c(N3CCCCCCC3)nnc12 [Compound 207, 1-(azocan-1-yl)-7-chloro-4methyl-4H-[1,2,4]triazolo[4,3-a]-quinazolin-5-one]
28 | 177 °C | O=c1c2cc(Br)ccc2n2c(N3CCSCC3)nnc2n1CC=Cc1cccnc1 [Compound 77, 7-Bromo-4(3-pyridin-3-yl-allyl)-1-thiomorpholin-4-yl-4H-[1,2,4]triazolo[4,3-a]quinazolin-5-one]
29 | 206 °C | O=c1c2cc([N+](=O)[O-])ccc2n2c(N3CCCCCC3)nnc2n1Cc1ccccc1 [Compound 198, 1-Azepan-1-yl-4-benzyl-7-nitro-4H-[1,2,4]triazolo[4,3-a]quinazolin-5-one]
30 | 138 °C | O=c1c2cc(Cl)ccc2n2c(N3CCCCCC3)nnc2n1Cc1ccc(C(F)(F)F)cc1 [Compound 14, 1-(azepan-1-yl)-7chloro-4-(4-(trifluoromethyl)benzyl)-4H-[1,2,4]triazolo[4,3-a]quinazolin-5-one]
31 | 174 °C | COc1ccc(Cn2nc(N3CCCCCC3)n3c4ccc(Br)cc4c(=O)nc23)cc1OC [Compound 137, 1-(azepan-1-yl)-7-bromo-3-(3,4dimethoxybenzyl)-3H-[1,2,4]triazolo[4,3-a]quinazolin-5-one]
32 | 152 °C | N#Cc1ccc(Cn2c(=O)c3cc(N)ccc3n3c(N4CCCC4)nnc23)cc1 [Compound 226, 4-(7-Amino-5-oxo-1-pyrrolidin-1-yl-5H-[1,2,4]triazolo[4,3-a]quinazolin-4-ylmethyl)-benzonitrile]
33 | 238 °C | O=C(Cn1nc(N2CCCCCC2)n2c3ccc(Cl)cc3c(=O)nc12)c1ccc(Cl)cc1 [Compound 132, 1-(azepan-1-yl)-7-chloro-3-[2-(4-chlorophenyl)-2-oxoethyl)-3H-[1,2,4]triazolo[4,3-a]quinazolin-5-one]
34 | 148 °C | O=c1nc2n(Cc3ccccc3)nc(N3CCCCCC3)n2c2ccc(Cl)cc12 [Compound 111, 1-(azepan-1-yl)-7-chloro-3-benzyl-3H-[1,2,4]triazolo[4,3-a]-quinazolin-5-one]
35 | 138 °C | COc1ccc(Cn2c(=O)c3cc(Cl)ccc3n3c(N4CCCCCC4)nnc23)cc1 [Compound 18, 1-(azepan-1-yl)-7-chloro-4-(4-methoxybenzyl)-4H-[1,2,4]triazolo[4,3-a]quinazolin-5-one]
36 | 221 °C | Cc1noc(C)c1Cn1c(=O)c2cc(Br)ccc2n2c(N3CCCC3)nnc12 [Compound 64, 7-Bromo-4-(3,5-dimethyl-isoxazol-4-ylmethyl)-1-pyrrolidin-1-yl-4H-[1,2,4]triazolo[4,3-a]quinazolin-5-one]
37 | 230 °C | COC(=O)c1ccc(Cn2c(=O)c3cc(C)ccc3n3c(N4CCCC4)nnc23)cc1 [Compound 95, 4(7-Methyl-5-oxo-1-pyrrolidin-1-yl-5H-[1,2,4]triazolo[4,3-a]quinazolin-4-ylmethyl)-benzoic acid methyl ester]
38 | 238 °C | COc1ccc(C(=O)Cn2nc(N3CCCCCC3)n3c4ccc(Cl)cc4c(=O)nc23)cc1 [Compound 131, 1-(azepan-1-yl)-7-chloro-3-(2-(4-methoxyphenyl)-2-oxoethyl]-3H-[1,2,4]triazolo[4,3-a]quinazolin-5-one]
